# Results as given in article PMC9945734 (BMC Medicine, 2023).
# Read-outs that look alike come from different tables or passages of the source.
# Experiments:
# PC-3-KQ cells [1] = test: 3D spheroid invasion assay and screening of FDA-approved drugs; type: cell-based, human; details: Homo sapiens; for activity at 0.01 µM / activity at 0.1 µM / activity at 1 µM / activity at 10 µM: 72 h, compared to vehicle control, read-out: Invasion rates (%) of each drug’s multiple concentrations
# How it was run: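 Cells were clustered into spheroids by centrifugation and grown 3 days, then embedded in matrigel-medium containing drug on day 4 and cultured another 3 days. Drugs were screened at 10 μM first, then at 0–10 μM, in duplicate wells. Invasion area is total area minus core sphere area from phase-contrast images.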
# DU 145-KQ cells = test: Clone formation assay; type: cell-based, human; details: 0-20 μM, 8 days
# Protocol: (§1) PC-3-KQ and DU 145-KQ cells were seeded onto 6-well plates at 1 × 10^3 cells/well. After incubation for 24 h, PC-3-KQ cells were treated with NTZ at 0, 1.25, 2.5, and 5 μM, while DU 145-KQ cells were treated with NTZ at 0, 5, 10, and 20 μM for 8 days. The drug-containing medium was replaced every 2 days. On the 8th day, cells were rinsed with cold PBS, fixed with 4% paraformaldehyde for 10 min, stained with purple crystal for 10 min, and photographed, and the images were analyzed using the Image J software.
# PC-3-KQ cells [2] = test: Clone formation assay; type: cell-based, human; details: 0-5 μM, 8 days
# Protocol: as §1
# PC-3-KQ-Luc cells = test: Bone metastasis assay, therapy mode; type: in vivo, Balb/c nude mice
# Protocol: Male Balb/c nude mice at 3-4 weeks old were purchased from Charles River (Beijing, China). Upon arrival at the Animal Center of the Southern University of Science and Technology (SUSTech), mice were quarantined for one week before use. All mice were maintained and handled following the National Institutes of Health guide for the Care and Use of Laboratory Animals. […] The tumor growth and body weight were measured each week. […] Tumor growth in the bone was determined once a week by in vivo BL imaging using the Living Image Software 4.4 (IVIS Spectrum, PerkinElmer Health Sciences, Massachusetts, USA). Ten minutes after intraperitoneal injection of D-luciferin sodium salt (15 mg/mL, 10 μL/g BW) (GM-040611, Genomeditech, Shanghai, China), bioluminescence images were acquired with the following conditions: open emission filter, exposure time = 60 s, binning = medium: 8, field of view = 12.9 ×12.9 cm, and f/stop = 1. Images were then analyzed using the Living Image 4.4 software (PerkinElmer). At the end of treatment, bioluminescence intensities were measured by photon flux of the region of interest (ROI) and compared between the vehicle and NTZ treatment groups. […] CC0113, […] Biotechnology, Beijing, China) was used as vehicle control, and NTZ was solved in CMC. NTZ was delivered into mice via intragastric administration (100 mg/kg BW) every day. After the sacrifice of mice, hind limbs were removed and fixed in 4% paraformaldehyde for 48 h. Limbs were then scanned using a micro-CT scanner (Skyscan1276, Bruker, Kontich, Belgium). For micro-CT imaging, the scan parameters were: source voltage, 60 kV; source current, 100 μA; AI 0.5 mm filter; pixel size, 10 μm; rotation step, 0.4 degrees. The images were then processed and constructed using the NRecon software (Version 1.7.1.6, Bruker) and converted using […] (Version 1.5.4, Bruker). The region of interest (ROI), set at 0.5 mm from the femur growth plate, was analyzed using the CT-Analyser (CTAn) program. Parameters included bone volume/total volume (BV/TV), trabecular number (Tb.N), trabecular separation (Tb.Sp), and trabecular thickness (Tb.Th). Finally, the 3D images were performed in CTvox software (Version 2.0, Bruker). Femurs were decalcified in ethylenediaminetetraacetic (EDTA) decalcification solution (Cat #: R20403-5L, OKA, Beijing, China) for 14-21 days. After decalcification, bone tissues were dehydrated in gradient ethanol from 70 to 95%, soaked in n-butanol for 6 h, and then embedded in paraffin. Tissue blocks were cut into 4 μm sections. After baking in an oven at 63°C for 1.5 h, tissue slides were deparaffinized with xylene, hydrated with gradient ethanol, and then stained with H&E (Cat #: BA4025, BaSO, Zhuhai, China). Slides were then mounted for analysis with neutral resins (Cat #: 25608-33-7, Sigma-Aldrich, MO, USA).
# RAW264.7 cells = test: CCK-8 cell viability assay; type: cell-based; details: concentrations smaller than 25 μM; 48 h
# Protocol: According to the manufacturer's instructions, cell viability was measured using a kit from Beyotime Biotechnology. Briefly, cells were seeded onto 96-well plates at 5 × 10^3 cells per well, incubated overnight, and then treated for 48 h with drugs at 0, 0.02, 0.05, 0.14, 0.41, 1.23, 3.7, 11.1, 33.3, and 100 μM. […] At the end of drug treatment, the medium was removed, the CCK-8 solution was added into each well at 100 μL/well and incubated for 1.5 h at 37°C, and the optical density (OD) was measured at 450 nm using a microplate reader (BioTek).
# MMP9 = MMP9 immunohistochemical staining of bone metastases; type: in vivo, Balb/c nude mice; details: KLF5^K369Q-induced bone metastases
# Protocol: Immunohistochemical staining was conducted following established procedures. Briefly, 4-μm sections of bone tissues were deparaffinized in xylene and rehydrated in gradient ethanol. The endogenous antigen was retrieved by incubating slides in 10 mM sodium citrate buffer (Cat #: C1010, Solarbio, Beijing, China) overnight in an oven at 65°C. After antigen retrieving, tissue sections were incubated with 3% hydrogen peroxide at room temperature for 10 min to block the endogenous […] activity. They were then incubated in a blocking solution (0.1% albumin bovine V mixed with 10% goat serum) for 40 min, and a solution containing a primary antibody (MMP9, 1:1000, Cat #: ab76003, Abcam, Cambridge, UK; MYBL2, 1:100, Cat #: ab76009, Abcam) for 1.5 h. After rinsing with PBS for 3 times, slides were incubated with the secondary antibody solution for 15 min and then with the DAB solution using the MaxVision II HRP kit (Cat #: KIT-5920, MXB Biotechnologies, Fuzhou, China). Nuclei were counterstained with hematoxylin for 2 min. Slides were then dehydrated with gradient ethanol (75–100%) and xylene and mounted with coverslips using the quick-hardening mounting medium. All slides were scanned using an Aperio VERSA 8 Scanner System (Leica, Wetzlar, Germany) and analyzed using the Image J software (Image J 1.48v, NIH, Bethesda, MD, USA).
# [3] = secondary screening of 87 hit compounds (Table S1)
# [4] = third screening of 25 hit compounds (Table S2)
# [5] = 100 mg/kg intragastric every day
smiles,measurement,setting,value
CC(=O)Oc1ccccc1C(=O)Nc1ncc([N+](=O)[O-])s1 [Nitazoxanide],activity at 0.01 µM,"PC-3-KQ cells [1]; 0.01 μM (first column so headed), secondary screening of 87 hit compounds (Table S1)",79.3%
same,activity at 0.01 µM,"PC-3-KQ cells [1]; 0.01 μM (first column so headed), third screening of 25 hit compounds (Table S2)",94.1%
same,activity at 0.01 µM,"PC-3-KQ cells [1]; 0.01 μM (second column so headed), secondary screening of 87 hit compounds (Table S1)",79.5%
same,activity at 0.01 µM,"PC-3-KQ cells [1]; 0.01 μM (second column so headed), third screening of 25 hit compounds (Table S2)",94.3%
same,activity at 0.1 µM,PC-3-KQ cells [1]; [3],45.6%
same,activity at 0.1 µM,PC-3-KQ cells [1]; [4],44%
same,activity at 1 µM,PC-3-KQ cells [1]; [3],4.45%
same,activity at 1 µM,PC-3-KQ cells [1]; [4],6.41%
same,activity at 10 µM,PC-3-KQ cells [1]; [3],3.4%
same,activity at 10 µM,PC-3-KQ cells [1]; [4],1.24%
same,inhibition at 0.1 µM,"PC-3-KQ cells [1]; at 0.1 μM, read-out: inhibition of cell invasion",> 50%
same,colony number,DU 145-KQ cells,reduced colony number
same,colony number,PC-3-KQ cells [2],reduced colony number
same,bone lesions (micro-CT),PC-3-KQ-Luc cells; [5],significantly reduced such lesions
same,tumor area in the bone (H&E),PC-3-KQ-Luc cells; [5],significantly reduced the tumor area
same,BV/TV,PC-3-KQ-Luc cells; micro-CT of femurs,significantly increased
same,Tb. N,PC-3-KQ-Luc cells; micro-CT of femurs,significantly increased
same,Tb. Sp,PC-3-KQ-Luc cells; micro-CT of femurs,potently decreased
same,Tb. Th,PC-3-KQ-Luc cells; micro-CT of femurs,significantly increased
same,bioluminescence intensities,"PC-3-KQ-Luc cells; treatment from day 7 for 4 weeks, 100 mg/kg intragastric every day",sharply decreased bioluminescence intensities
same,cytotoxicity (cell viability),RAW264.7 cells,did not exhibit detectable cytotoxicity
same,MMP9 protein expression (IHC),MMP9,decrease of MMP9 protein expression
